Experimental data: ChEMBL document CHEMBL1201862, “PubChem BioAssay data set” (2004)
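Exposure lasted 48 hours, with cells grown in 96-well plates and compounds tested at five concentrations. Here, GI50 denotes the concentration required for 50% inhibition of growth.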 Calls of active or inactive are those of the source. Rule as the data show it: active = GI50 up to about 1.1 µM and inactive = higher.

Assays:
Test in all cases: inhibition of tumour cell growth, NCI panel, 48 h
SNB-75 = system: SNB-75
OVCAR-8 = system: OVCAR-8
MDA-N = system: MDA-N
BT-549 = system: BT-549
ACHN = system: ACHN
UO-31 = system: UO-31
DU-145 = system: DU-145
HCT-15 = system: HCT-15
A549 = system: A549
SN12C = system: SN12C
LOX IMVI = system: LOX IMVI
MOLT-4 = system: MOLT-4
IGROV-1 = system: IGROV-1
OVCAR-5 = system: OVCAR-5
HOP-92 = system: HOP-92
OVCAR-4 = system: OVCAR-4
HCT-116 = system: HCT-116
786-0 = system: 786-0
PC-3 = system: PC-3
CCRF-CEM = system: CCRF-CEM
NCI-H23 = system: NCI-H23
SK-MEL-2 = system: SK-MEL-2
SNB-19 = system: SNB-19
HT-29 = system: HT-29
M14 = system: M14
A498 = system: A498
NCI-H460 = system: NCI-H460
HCC 2998 = system: HCC 2998
MDA-MB-231 = system: MDA-MB-231
UACC-257 = system: UACC-257
UACC-62 = system: UACC-62
CAKI-1 = system: CAKI-1
RXF 393 = system: RXF 393
KM12 = system: KM12
NCI/ADR-RES = system: NCI/ADR-RES
MDA-MB-435 = system: MDA-MB-435
K562 = system: K562
SW-620 = system: SW-620
SR = system: SR
SK-MEL-28 = system: SK-MEL-28
NCI-H226 = system: NCI-H226
MCF7 = system: MCF7
HOP-62 = system: HOP-62
RPMI-8226 = system: RPMI-8226
SF-539 = system: SF-539
T47D = system: T47D
SF-295 = system: SF-295
OVCAR-3 = system: OVCAR-3
U-251 = system: U-251
EKVX = system: EKVX
COLO 205 = system: COLO 205
SK-MEL-5 = system: SK-MEL-5

For `O=S(=O)(O)c1ccc(O)c2ncc(Cl)cc12`, the GI50 (SNB-75) was > 100 µM (inactive), the GI50 (OVCAR-8) was > 100 µM (inactive) and the GI50 (MDA-N) was > 100 µM (inactive). For the same compound, the GI50 (BT-549) was > 100 µM (inactive), the GI50 (ACHN) was > 100 µM (inactive) and the GI50 (UO-31) was > 100 µM (inactive). The GI50 (DU-145) was > 100 µM (inactive), the GI50 (HCT-15) was over 100 µM and the GI50 (A549) was > 100 µM (inactive). The GI50 (SN12C) was > 100 µM (inactive), the GI50 (LOX IMVI) was > 100 µM (inactive) and the GI50 (MOLT-4) was > 100 µM (inactive). The GI50 (IGROV-1) was > 100 µM (inactive), the GI50 (OVCAR-5) was > 100 µM (inactive) and the GI50 (HOP-92) was > 100 µM (inactive). For the same compound, the GI50 (OVCAR-4) was > 100 µM (inactive), the GI50 (HCT-116) was > 100 µM (inactive) and the GI50 (786-0) was > 100 µM (inactive). The GI50 (PC-3) was > 100 µM (inactive), the GI50 (CCRF-CEM) was > 100 µM (inactive) and the GI50 (NCI-H23) was > 100 µM (inactive). The GI50 (SK-MEL-2) was > 100 µM (inactive), the GI50 (SNB-19) was > 100 µM (inactive) and the GI50 (HT-29) was > 100 µM (inactive). The GI50 (M14) was > 100 µM (inactive), the GI50 (A498) was > 100 µM (inactive) and the GI50 (NCI-H460) was > 100 µM (inactive). For the same compound, the GI50 (HCC 2998) was > 100 µM (inactive), the GI50 (MDA-MB-231) was > 100 µM (inactive) and the GI50 (UACC-257) was > 100 µM (inactive). For the same compound, the GI50 (UACC-62) was > 100 µM (inactive), the GI50 (CAKI-1) was > 100 µM (inactive) and the GI50 (RXF 393) was > 100 µM (inactive). The GI50 (KM12) was > 100 µM (inactive), the GI50 (NCI/ADR-RES) was > 100 µM (inactive) and the GI50 (MDA-MB-435) was > 100 µM (inactive). The GI50 (K562) was > 100 µM (inactive), the GI50 (SW-620) was > 100 µM (inactive) and the GI50 (SR) was > 100 µM (inactive). For the same compound, the GI50 (SK-MEL-28) was > 100 µM (inactive), the GI50 (NCI-H226) was > 100 µM (inactive) and the GI50 (MCF7) was > 100 µM (inactive). For the same compound, the GI50 (HOP-62) was > 100 µM (inactive), the GI50 (RPMI-8226) was 51.1 µM (inactive) and the GI50 (SF-539) was > 100 µM (inactive). The GI50 (T47D) was > 100 µM (inactive), the GI50 (SF-295) was > 100 µM (inactive) and the GI50 (OVCAR-3) was > 100 µM (inactive). For the same compound, the GI50 (U-251) was > 100 µM (inactive), the GI50 (EKVX) was > 100 µM (inactive) and the GI50 (COLO 205) was > 100 µM (inactive). The GI50 (SK-MEL-5) was > 100 µM (inactive).
